How the values were obtained:
Assay in all cases: relative viability (nuclei count vs DMSO), 5 days (fraction); higher = more cells survive
[1] = compound: C/C(=N\NC(=S)N1CCC1)/C2=CC=CC=N2 + Cc1nc(Nc2ncc(C(=O)Nc3c(C)cccc3Cl)s2)cc(N2CCN(CCO)CC2)n1 [Dasatinib] (partner 0.075 µM)
Procedure, shortened: (§1)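 The day after seeding in 1536-well plates, lung cancer cell lines were treated by pin tool with a single drug, or with a fixed anchor-drug dose together with five library-drug doses (not always all listed) in √10 steps. After 5 days, a combined fix-and-stain solution (final 0.05% Triton X-100, 1% formaldehyde, 1 ug/ml Hoechst) was added. Nuclei counted on 4× images gave relative viability as treated counts over vehicle counts, reported as the median of duplicate plates.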

[2] = compound: C/C(=N\NC(=S)N1CCC1)/C2=CC=CC=N2 + CC1(C)CCC(c2ccc(Cl)cc2)=C(CN2CCN(c3ccc(C(=O)NS(=O)(=O)c4ccc(N[C@H](CCN5CCOCC5)CSc5ccccc5)c(S(=O)(=O)C(F)(F)F)c4)cc3)CC2)C1 [Navitoclax] (partner 0.5 µM)
Procedure, shortened: as §1

[3] = compound: C/C(=N\NC(=S)N1CCC1)/C2=CC=CC=N2 + O=C(CCCCCCC(=O)Nc1ccccc1)NO [Vorinostat] (partner 1 µM)
Procedure, shortened: as §1

[4] = compound: C/C(=N\NC(=S)N1CCC1)/C2=CC=CC=N2 + C[C@@H](Oc1cc(-c2cnn(C3CCNCC3)c2)cnc1N)c1c(Cl)ccc(F)c1Cl [Crizotinib] (partner 1 µM)
Procedure, shortened: as §1

Row | Cell Line | relative viability ([1]; first compound 0.05 µM) | relative viability ([1]; first compound 0.1581 µM) | relative viability ([1]; first compound 0.5 µM) | relative viability ([1]; first compound 1.581 µM) | relative viability ([1]; first compound 5 µM) | relative viability ([2]; first compound 0.05 µM) | relative viability ([2]; first compound 0.1581 µM) | relative viability ([2]; first compound 0.5 µM) | relative viability ([2]; first compound 1.581 µM) | relative viability ([2]; first compound 5 µM) | relative viability ([3]; first compound 0.05 µM) | relative viability ([3]; first compound 0.1581 µM) | relative viability ([3]; first compound 0.5 µM) | relative viability ([3]; first compound 1.581 µM) | relative viability ([3]; first compound 5 µM) | relative viability ([4]; first compound 0.05 µM) | relative viability ([4]; first compound 0.1581 µM) | relative viability ([4]; first compound 0.5 µM) | relative viability ([4]; first compound 1.581 µM) | relative viability ([4]; first compound 5 µM)
1 | NCI-H2087 | 0.129 | 0.15 | 0.15 | 0.107 | 0.0833 | 0.248 | 0.212 | 0.185 | 0.146 | 0.18 | 0.145 | 0.0717 | 0.14 | 0.0948 | 0.098 | 0.323 | 0.274 | 0.284 | 0.187 | 0.171
2 | NCI-H2228 | 0.133 | 0.121 | 0.135 | – | 0.0925 | 0.181 | 0.132 | 0.13 | 0.117 | 0.123 | 0.231 | 0.15 | 0.166 | 0.156 | 0.145 | 0.169 | 0.213 | 0.262 | 0.141 | 0.149
3 | NCI-H727 | 0.204 | 0.24 | 0.236 | 0.242 | 0.274 | 0.109 | 0.0812 | 0.098 | 0.189 | 0.257 | 0.298 | 0.327 | 0.299 | 0.311 | 0.304 | 0.193 | 0.145 | 0.138 | 0.179 | 0.157
4 | NCI-H650 | 0.19 | 0.212 | 0.191 | 0.216 | 0.177 | – | – | – | – | – | 0.152 | 0.163 | 0.152 | 0.177 | 0.139 | 0.187 | 0.195 | 0.221 | 0.146 | 0.171
5 | NCI-H520 | 0.175 | 0.117 | 0.162 | 0.178 | 0.166 | 0.19 | 0.212 | 0.301 | 0.151 | 0.166 | 0.177 | 0.156 | 0.163 | 0.182 | 0.159 | 0.0874 | 0.112 | 0.123 | 0.104 | 0.116
6 | EBC-1 | – | – | – | – | – | 0.135 | 0.146 | 0.136 | 0.134 | 0.174 | – | – | – | – | – | 0.173 | 0.187 | 0.163 | 0.162 | 0.128
7 | NCI-H661 | 0.196 | 0.223 | 0.197 | 0.2 | 0.212 | – | – | – | – | – | 0.324 | 0.297 | 0.289 | 0.283 | 0.259 | 0.361 | 0.322 | 0.263 | 0.349 | 0.288
8 | NCI-H1299 | – | – | – | – | – | 0.0935 | 0.128 | 0.17 | 0.178 | 0.124 | – | – | – | – | – | 0.16 | 0.16 | 0.191 | 0.19 | 0.102
9 | LK-2 | 0.141 | 0.187 | 0.17 | 0.121 | 0.151 | 0.121 | 0.146 | 0.108 | 0.112 | 0.126 | 0.117 | 0.143 | 0.145 | 0.169 | 0.127 | 0.197 | 0.255 | 0.266 | 0.226 | 0.215
10 | NCI-H1993 | 0.433 | 0.525 | 0.525 | 0.434 | 0.435 | 0.664 | 0.662 | 0.638 | 0.511 | 0.533 | 0.337 | 0.539 | 0.319 | 0.338 | 0.446 | 0.588 | 0.536 | 0.571 | 0.509 | 0.443
